Test results: paper PMC9269301, “Phytochemical Analysis, Antioxidant, Antimicrobial, and Cytotoxic Activity of Different Extracts of Xanthoparmelia stenophylla Lichen from Stara Planina, Serbia” (Plants, 2022)
In brackets after ≈: the same amount, converted by molar mass. Like-named read-outs stand apart in the source and are kept apart here.

How the values were obtained:
[1] = system: S. aureus (isolate); assay: Microdilution with resazurin, antibacterial; type: cell-based, Staphylococcus aureus
Protocol: (§1) The tested methanol, acetone, and n-hexane extracts, as well as the component (usnic acid) of X. stenophylla, were dissolved in 10% dimethyl sulfoxide (DMSO) and then diluted into the nutrient liquid medium. DMSO was obtained from Acros Organics (Fair Lawn, NJ, USA). Resazurin was obtained from Alfa Aesar GmbH & Co. (KG, Karlsruhe, Germany).
(§2) The antimicrobial activity of the extracts and components was tested against 19 microorganisms. The experiment involved 15 strains of bacteria (i.e., 6 standard strains: Staphylococcus aureus ATCC 6538, Bacillus subtilis ATCC 6633, Proteus mirabilis ATCC 12453, Pseudomonas aeruginosa ATCC 27853, Klebsiella pneumoniae ATCC 70063, and Escherichia coli ATCC 25922; 9 isolates: Staphylococcus aureus, Escherichia coli, Salmonella enterica, Salmonella Typhimurium, Proteus mirabilis, Klebsiella pneumoniae, Pseudomonas aeruginosa, Bacillus subtilis, and Bacillus cereus). In addition, four fungal strains (i.e., two standard strains: Candida albicans ATCC 10231 and Aspergillus niger ATCC 16888; two isolates: Saccharomyces cerevisiae and Candida albicans) were tested. All isolates were a generous gift from the Institute of Public Health, Kragujevac. The other microorganisms were provided from the collection held by the Microbiology Laboratory Faculty of Science, University of Kragujevac.
(§3) The bacterial suspensions were prepared by the direct colony method. The turbidity of the initial suspension was adjusted using a densitometer (DEN-1, BioSan, Riga, Latvia). When adjusted to the turbidity of the 0.5 McFarland’s standard (Andrews, 2005) the bacteria suspension contained approximately 10^8 colony-forming units (CFU)/mL, and the suspension of yeast contained 10^6 CFU/mL; 1:100 dilutions of the initial suspension were additionally prepared in sterile 0.85% saline. The suspensions of fungal spores were prepared by gentle stripping of spores from slopes with growing mycelia. The resulting suspensions were 1:1000 diluted in sterile 0.85% saline.
(§4) Antimicrobial activity was tested by determining the minimum inhibitory concentrations (MICs) and minimum microbicidal concentrations (MBCs) using the microdilution plate method with resazurin [56]. The 96-well plates were prepared by dispensing 100 μL of Mueller–Hinton broth for bacteria and Sabouard broth for fungi into each well. A 10 μL aliquot from the stock solution of the tested extract or component was added to the first row of the plate. Then, two-fold serial dilutions were performed using a multichannel pipette. The obtained concentration range was from 10 to 0.08 mg/mL. The method is described in detail in [76].
(§5) Each test included growth control and sterility control.
(§6) Minimum microbicidal concentrations were determined by plating 10 μL of samples from wells where no indicator color change or no mycelia growth was recorded on a nutrient agar medium. At the end of the incubation period, the lowest concentration with no growth (no colony) was defined as the minimum microbicidal concentration.

[2] = system: S. aureus ATCC 6538; assay: Microdilution with resazurin, antibacterial; type: cell-based, Staphylococcus aureus
Protocol: as §1, §2, §3, §4, §5, §6

[3] = system: K. pneumoniae (isolate); assay: Microdilution with resazurin, antibacterial; type: cell-based, Klebsiella pneumoniae
Protocol: as §1, §2, §3, §4, §5, §6

[4] = system: K. pneumoniae ATCC 70063; assay: Microdilution with resazurin, antibacterial; type: cell-based, Klebsiella pneumoniae
Protocol: as §1, §2, §3, §4, §5, §6

[5] = system: P. aeruginosa biofilm; assay: Antibiofilm activity (biofilm formation, crystal violet); type: cell-based, Pseudomonas aeruginosa; settings: P. aeruginosa, 37 °C, 48 h
Protocol: (§7) The ability of S. aureus ATCC 6538 and P. aeruginosa to form biofilms was assayed as described by O’Toole et al. with some modifications. Briefly, the tissue culture of 96-well microtiter plates (Sarstedt, Germany) were prepared by dispensing 100 µL of nutrient broth (i.e., Mueller–Hinton broth) into each well. Ten microliters of spore suspension (10^8 colony-forming units (CFU)/mL) was added into each row. […] Biofilms formed by adherent cells in 96-well microtiter plates were stained with crystal violet (0.1% w/v; Fluka AG, Buchs, Switzerland) and incubated at room temperature for 20 min. Excess stain was rinsed off by thorough washing with deionized water and then with […] of 96% ethanol. Optical densities (ODs) of stained adherent bacteria were determined with an enzyme-linked immunosorbent assay (ELISA) plate reader (RT-2100C, Rayto, Shenzhen, China) at a 630 nm wavelength. Only broth served as a control to check sterility and nonspecific binding of media. To compensate for background absorbance, OD readings from sterile medium, fixative, and dye were averaged and subtracted from all test values. All tests were performed in duplicate. The tissue culture of 96-well microtiter plates (Sarstedt, Nümbrecht, Germany) were prepared by dispensing 100 µL of nutrient broth (i.e., Mueller–Hinton broth) into each well. From the stock solution of the tested extracts or components (concentration: 20 mg/mL), 100 µL was added to the first row of the microtiter plate. Two-fold serial dilutions were then made using a multichannel pipette, following which 10 µL of fresh bacterial suspension was added to each well. The inoculated microtiter plates were incubated at 37 °C for 48 h. After incubation, the content of each well was gently removed by tapping the microtiter plates. […] Biofilms formed by adherent cells in 96-well microtiter plates were stained with crystal violet (0.1% w/v; Fluka AG, Switzerland) and incubated at room temperature for 20 min. Excess stain was rinsed off by thorough washing with deionized water and then with […] densities (ODs) of stained adherent bacteria were determined with an enzyme-linked immunosorbent assay (ELISA) plate reader at a 630 nm wavelength. […] Only broth or broth with extracts served as a control to check the sterility and nonspecific binding of media. To compensate for background absorbance, OD readings from sterile medium, extracts, fixative, and dye were averaged and subtracted from all test values. All tests were performed in duplicate.

[6] = system: P. mirabilis ATCC 12453; assay: Microdilution with resazurin, antibacterial; type: cell-based, Proteus mirabilis
Protocol: as §1, §2, §3, §4, §5, §6

[7] = system: P. mirabilis (isolate); assay: Microdilution with resazurin, antibacterial; type: cell-based, Proteus mirabilis
Protocol: as §1, §2, §3, §4, §5, §6

[8] = system: S. aureus ATCC 6538 biofilm; assay: Antibiofilm activity (biofilm formation, crystal violet); type: cell-based, Staphylococcus aureus; settings: S. aureus ATCC 6538, 37 °C, 48 h
Protocol: as §7

[9] = system: P. aeruginosa ATCC 27853; assay: Microdilution with resazurin, antibacterial; type: cell-based, Pseudomonas aeruginosa
Protocol: as §1, §2, §3, §4, §5, §6

[10] = system: P. aeruginosa (isolate); assay: Microdilution with resazurin, antibacterial; type: cell-based, Pseudomonas aeruginosa
Protocol: as §1, §2, §3, §4, §5, §6

[11] = system: S. enterica (isolate); assay: microbe, parasite or virus in culture; type: cell-based, Salmonella enterica
Protocol: as §1, §2, §3, §4, §5, §6

[12] = system: B. cereus (isolate); assay: Microdilution with resazurin, antibacterial; type: cell-based, Bacillus cereus
Protocol: as §1, §2, §3, §4, §5, §6

[13] = S. enterica, extracts and usnic acid

CN(C)[C@@H]1C(O)=C(C(N)=O)C(=O)[C@@]2(O)C(O)=C3C(=O)c4c(O)cccc4[C@@](C)(O)[C@H]3C[C@@H]12 [TC, tetracycline]
MBC ([1]; Staphylococcus aureus, antibiotics, read-out: MBC): < 0.06 µg/mL
MIC ([1]; Staphylococcus aureus, antibiotics, read-out: MIC): < 0.06 µg/mL
MBC ([2]; Staphylococcus aureus, ATCC6538, antibiotics, read-out: MBC): 6 µg/mL (≈ 13.5 µM)
MIC ([2]; Staphylococcus aureus, ATCC6538, antibiotics, read-out: MIC): 3 µg/mL (≈ 6.75 µM)
MBC ([3]; Klebsiella pneumoniae, antibiotics, read-out: MBC): 32 µg/mL (≈ 72 µM)
MIC ([3]; Klebsiella pneumoniae, antibiotics, read-out: MIC): 4 µg/mL (≈ 9 µM)
MBC ([4]; Klebsiella pneumoniae, ATCC70063, antibiotics, read-out: MBC): 64 µg/mL (≈ 144 µM)
MIC ([4]; Klebsiella pneumoniae, ATCC70063, antibiotics, read-out: MIC): 4 µg/mL (≈ 9 µM)
BIC90 (biofilm inhibitory concentration, 90% reduction of biofilm coverage) [5]: >1000 µg/mL
IC50 ([5]; Pseudomonas aeruginosa, read-out: BIC50 (biofilm inhibitory concentration, 50% reduction of biofilm coverage)): > 1000 µg/mL
MBC ([6]; Proteus mirabilis, ATCC12453, antibiotics, read-out: MBC): 4 µg/mL (≈ 9 µM)
MIC ([6]; Proteus mirabilis, ATCC12453, antibiotics, read-out: MIC): 2 µg/mL (≈ 4.5 µM)
MBC ([7]; Proteus mirabilis, antibiotics, read-out: MBC): > 128 µg/mL
MIC ([7]; Proteus mirabilis, antibiotics, read-out: MIC): > 128 µg/mL
BIC90 (biofilm inhibitory concentration, 90% reduction of biofilm coverage) [8]: >1000 µg/mL
IC50 ([8]; Staphylococcus aureus, ATCC6538, read-out: BIC50 (biofilm inhibitory concentration, 50% reduction of biofilm coverage)): 249 µg/mL (≈ 560 µM)
MBC ([9]; Pseudomonas aeruginosa, ATCC27853, antibiotics, read-out: MBC): 32 µg/mL (≈ 72 µM)
MIC ([9]; Pseudomonas aeruginosa, ATCC27853, antibiotics, read-out: MIC): 4 µg/mL (≈ 9 µM)
MBC ([10]; Pseudomonas aeruginosa, antibiotics, read-out: MBC): > 128 µg/mL
MIC ([10]; Pseudomonas aeruginosa, antibiotics, read-out: MIC): > 128 µg/mL
MBC ([11]; Salmonella enterica): 2 µg/mL (≈ 4.5 µM)
MBC ([12]; Bacillus cereus, antibiotics, read-out: MBC): 0.5 µg/mL (≈ 1.13 µM)
MIC ([12]; Bacillus cereus, antibiotics, read-out: MIC): 0.25 µg/mL (≈ 0.563 µM)

usnic acid
MBC ([1]; extracts and usnic acid): 156 µg/mL
MIC ([1]; extracts and usnic acid): 156 µg/mL
MBC ([2]; extracts and usnic acid): 625 µg/mL
MIC ([2]; extracts and usnic acid): 312.5 µg/mL
MBC ([3]; extracts and usnic acid): <10000 µg/mL
MIC ([3]; extracts and usnic acid): <10000 µg/mL
MBC ([4]; extracts and usnic acid): <10000 µg/mL
MIC ([4]; extracts and usnic acid): <10000 µg/mL
BIC50 (biofilm inhibitory concentration, 50% reduction of biofilm coverage) [5]: > 10,000 µg/mL
BIC90 (biofilm inhibitory concentration, 90% reduction of biofilm coverage) [5]: > 10,000 µg/mL
BIC50 (biofilm inhibitory concentration, 50% reduction of biofilm coverage) ([5]; listed as UA): <10,000 µg/mL
BIC90 (biofilm inhibitory concentration, 90% reduction of biofilm coverage) ([5]; listed as UA): <10,000 µg/mL
MBC ([6]; extracts and usnic acid): <10000 µg/mL
MIC ([6]; extracts and usnic acid): <10000 µg/mL
MBC ([7]; extracts and usnic acid): <10000 µg/mL
MIC ([7]; extracts and usnic acid): <10000 µg/mL
BIC50 (biofilm inhibitory concentration, 50% reduction of biofilm coverage) [8]: 1750 µg/mL
BIC90 (biofilm inhibitory concentration, 90% reduction of biofilm coverage) [8]: 5000 µg/mL
MBC ([9]; extracts and usnic acid): <10000 µg/mL
MIC ([9]; extracts and usnic acid): 10000 µg/mL
MBC ([10]; extracts and usnic acid): <10000 µg/mL
MIC ([10]; extracts and usnic acid): 10000 µg/mL
MBC [11, 13]: <10000 µg/mL
MIC [11, 13]: <10000 µg/mL
MBC ([12]; extracts and usnic acid): <80 µg/mL
MIC ([12]; extracts and usnic acid): <80 µg/mL
